Columns and labels:
interferon [1] = conditions: statement in words; cited from earlier work
distemper = experiment: Investigation of clinical effectiveness in dogs with distemper; assay type: in vivo; conditions: 2-4 ml of 0,5% solution intramuscularly twice daily for 3-10 days
Method: Investigation of clinical effectiveness in dogs with distemper
Dogs with an established diagnosis of distemper (duration of the disease from 10 to 30 days; in 3 animals--the intestinal form of the disease, in 2- pulmonary form, and in 3 animals--the neuro-paralytic stage) were inoculated intramuscularly with 2-4 ml (depending on the animal's weight) of 0,5% solution of the test compound I in distilled water twice daily for 3-10 days.

[2] = system: hemopoietic stem cells (HSC); experiment: Investigation of the effect on hemopoietic stem cell: release into the blood (exogenous colony formation); assay type: in vivo, mice; conditions: statement in words
Method: Investigation of the effect on hemopoietic stem cell
Compound I was diluted in physiological saline solution to a concentration of […]. Mice of the experimental groups were inoculated with 0,2 ml of one of the obtained solutions (0,5 and 1 μg/mouse respectively) intraperitoneally. Control animals were given injections of physiological saline solutions. At 1, 2, 3, 4 and 7 days after administration of the test compound, the animals were given heparin (40 units/mouse), and then specimens of the peripheral blood, spleen and bone marrow from thighbones. The blood was diluted 1:1 with physiological saline solution. Bone marrow and spleen suspensions were prepared by the standard method. The content of hemopoietic stem cells (HSC) in the blood, bone marrow and spleens of the animals treated with the preparation were tested by the method of exogenous colony formation in the spleen of syngeneic lethally irradiated recipients; more specifically, diluted peripheral blood (0,1 ml), bone marrow cells (3-5 ×10^4 cells) or spleen cells (5×10^5 cells) were inoculated to lethally irradiated syngeneic recipients which were killed at 8-9 days; their spleens were removed, fixed in Bouin's solution, and the number of visible plaques or colonies developing from HSC was counted.

[3] = system: α, β, γ interferons in mouse serum
Method: Investigation of induction of α, β, γ interferons in mouse serum in vivo
The level of interferon synthesis in the blood serum was determined at various intervals (5, 24, 48, 72 hours). Interferon titrations were carried out in L-929 cell cultures. The test virus was mouse encephalomyocarditis virus.

[4] = system: hemopoietic stem cells (HSC); experiment: Effect on proliferation of HSC (S-phase, oxyurea treatment); assay type: in vivo, mice; conditions: statement in words
acute toxicity in mice = assay type: in vivo
Method: The novel complex has low toxicity. In investigations of acute toxicity in mice, the LD50 is 900 mg per kilo body weight.

[5] = system: Staphylococcus aureus Wood 46; experiment: Investigation of the staphylococcal activity; assay type: in vivo, CBA mice infected with Staphylococcus aureus Wood 46; conditions: dose of 1 μg; statement in words
Method: Investigation of the staphylococcal activity
The preparation was inoculated subcutaneously to CBA mice in doses from 0,1 to 10 μg per mouse, after which the animals were inoculated with 1,25×10^6 microbial cells of Staphylococcus aureus Wood 46.

γ-interferon = conditions: suspension of mononuclear cells in vitro; cited from earlier work
interferon [6] = conditions: mice, oral administration; cited from earlier work

CCC[O][Ge]1([OH])[O]C(=O)c2cccc(n2)C(=O)[O]1 [2,6-pyridinediyl-biscarbonylox-(hydroxypropoxygermanium)]
immune interferon inducer properties (interferon [1]): possessing the properties of an immune interferon inducer | immunomodulating activity (interferon [1]): narrow spectrum of the immunomodulating activity

O=C1[O][Ge]2([O]C(=O)c3cccc1n3)[O]C(=O)c1cccc(n1)C(=O)[O]2 [Compound I, germanium bis(pyridine-2,6-dicarboxylate)]
solubility in chloroform (solubility; chloroform): insoluble | solubility in diethylformamide (solubility; diethylformamide): moderately soluble | solubility in dimethyl sulphoxide (solubility; dimethyl sulphoxide): moderately soluble | solubility in ethanol (solubility; ethanol): insoluble | solubility in ether (solubility; ether): insoluble | solubility in hydrocarbons (solubility; hydrocarbons): insoluble | solubility in water (solubility; water): moderately soluble | clinical outcome (distemper): all the animals became clinically normal | number of HSC in the blood [2]: increases the number of HSC in the blood | γ interferon in serum ([3]; at later intervals postinoculation): at later intervals γ interferon | interferons α and β in serum ([3]; within the first 5 hours postinoculation): detectable | capacity to stimulate HSC release into the S-phase [4]: No capacity to stimulate HSC release into the S-phase was demonstrated | LD50 (acute toxicity in mice; mouse, in vivo, mice, acute toxicity): 900 mg/kg | toxicity (acute toxicity in mice; statement in words): low toxicity | resistance of mice to staphylococcus [5]: enhances the resistance of mice to staphylococcus

O=C(O)C[CH2][Ge](=[O])[O][Ge](=[O])[CH2]CC(=O)O [carboxyethylgermanium-sesquioxide]
γ-interferon synthesis (γ-interferon): capable of inducing γ-interferon synthesis | effectiveness as an immune interferon inducer (interferon [1]): low effectiveness as an immune interferon inducer | toxicity (interferon [1]): has toxicity | interferon production in the blood (interferon [6]): capable, upon oral administration, of inducing interferon production in the blood of mice

Source: patent US6204276A, “Dicarboxylic germanium complex and its therapeutic use” (Primamedic Ltd., priority 1996, dated 2001)
